Among the data in a melting point compilation (Tetko et al.; mined from patent text by program, amines drawn as free bases though some values may be those of a salt) are melting point values, retold here.

On to `CCC(C)(C)c1cc(C(C)(C)CC)c2c(c1)C1(O)C(=O)c3ccccc3C1(O)O2` (configuration not stated), for which the melting point was 195 to 222 °C.
Regarding `CN=C(NS(=O)(=O)c1ccc(Cl)cc1)C1=NN(c2ccc(Cl)cc2)C(c2ccccc2)C1` (configuration not stated), the melting point lay within 134 to 144 °C.
On to `CCCCN1C(=O)c2c(ncn2C)N2CCN=C12`, for which the melting point was in the range of 122 to 124 °C.
In the case of `COc1cc(C(=O)N(C)OC)c2oc(-c3ccc(OC)c(F)c3)cc2c1`, the melting point lay within 100 to 102 °C.
The compound `CC(C)(Cc1ccccc1)C(NC(=O)c1ccncc1)Nc1c(Nc2cccnc2)c(=O)c1=O` (configuration not stated) gave a melting point of 251 to 254 °C.
To `Cn1ncc2c1-c1c(Oc3ccc(OCc4ccc5ccccc5n4)cc3)sc(C(N)=O)c1CC2` belongs 139 to 140 °C.
`COCCn1nc2ccccc2c1C(=O)NCC1CCN(CCc2ccccc2F)CC1` gave a melting point of 128 to 130 °C.
To `COc1ccccc1C1(O)C(=O)Nc2ccc(C)c(Cl)c21` (configuration not stated) belongs 262 to 263 °C.
To `CC(C)(C)c1cc(/C=C/C(=O)CC(=O)/C=C/c2cc(C(C)(C)C)c(O)c(C(C)(C)C)c2)cc(C(C)(C)C)c1O` belongs 192 to 196 °C.
The compound `Cc1noc(-c2cn(-c3cccc(-c4ccccc4)c3)cn2)n1` yielded a melting point of 163 to 165 °C.
Turning to `CNC(=S)Nc1nc(C(C)c2ccc(-c3ccccc3)c(F)c2)cs1` (configuration not stated), the melting point lay within 180 to 181 °C.
As to `CC(=O)c1cccc(F)c1C(=O)O`, the melting point lay in the range of 76 to 81.5 °C.
In turn, `Cc1c(NC(=O)NCCO)c(C)c2c(c1-c1ccccc1)OCC2c1ccc(C(C)C)cc1` (configuration not stated) had a melting point of 152 to 155 °C.
To `COc1ccc(CNc2ccnc(Cl)c2C(=O)O)cc1Cl` belongs 228 to 230 °C; to `CSc1cc(C)nc(SC)c1NC(=O)CN1CCN(CCSc2nc3ccccc3s2)CC1`, 136 to 139 °C.
Compound `CN1CCc2c(cccc2NC(=O)c2ccccc2Br)C1` showed a melting point of 206 to 208 °C.
Consider `COC(=O)c1ccc(NC(=O)[C@H](Cc2ccc(-c3ccccc3)cc2)NCP(=O)(OC)OC)cc1`, for which the melting point lay in the range of 128 to 129 °C.
`CC1(C)CCC(C)(C)C(=O)C1=O`: the melting point was in the range of 109 to 111 °C.
With `CCc1cc(OCc2ccccc2)ccc1C(=O)O`, the melting point lay in the range of 132 to 133 °C.
As to `COc1ccc(S(=O)(=O)N2c3ccc(Cl)cc3C(O)(c3ccccc3Cl)C2C(=O)N2CCN(C)CC2)cc1OC` (configuration not stated), the melting point worked out at 120 °C.
`Cc1cc2c(c([N+](=O)[O-])c1)N(c1ccccc1C#N)CC2` showed a melting point of 138 to 139 °C.
As for `Cc1cccc(Nc2cc(Nc3cccc(OCC4CO4)c3)ncn2)c1` (configuration not stated), the melting point fell in the range of 143 to 145 °C.
`CN1CCN(CCCCCCCCCOc2ccc3oc(-c4ccccc4)cc(=O)c3c2)CC1`: the melting point is 77 to 80 °C.
In the case of `CCCc1ccc(S(=O)(=O)NN2CCOCC2)cc1`, the melting point lay in the range of 150 to 152 °C.
Compound `Cc1nc2n(c(=O)c1CCCl)CCCC2OCc1ccccc1` (configuration not stated) displayed a melting point of 140 to 141 °C.
In the case of `CCc1nc(OC)c(NC(=O)N2CCN(c3cc(OC)cc(OC)c3)CC2)cc1C`, the melting point lay in the range of 115 to 116 °C.
To `C[C@@H]1Nc2nc(Cl)ccc2NC1=O` belongs 236 to 237 °C; to `COC(=O)COc1ccc(-c2coc3cc(OCC(=O)OC)ccc3c2=O)cc1`, 163 to 166 °C.
`CC(=O)COc1ccc(O)cc1` came in with a melting point of 110 to 112 °C.
For the compound `CCOc1ccc(-n2cnnc2C(F)(F)F)cc1`, the melting point worked out at 70 °C.
Regarding `O=C(OCc1ccccc1)c1ccc2cc(-c3ccc(CCCO)c(C45CC6CC(CC(C6)C4)C5)c3)ccc2c1`, the melting point amounted to 176 °C.
Turning to `COc1cc2cnnc(N3CCCC(CO)C3)c2cc1OC` (configuration not stated), the melting point fell in the range of 162 to 165 °C.
As to `O=[N+]([O-])C=Cc1ccsc1`, the melting point lay within 94.5 to 96.5 °C.
Compound `Cc1nc(Cn2c(=O)sc3cc(F)c(N=C=S)cc32)no1` showed a melting point of 168 to 170 °C.
`CC[C@@]1(CC(=O)N[C@@H](C)c2ccccc2)CCCN2CCc3c([nH]c4ccccc34)[C@@H]21`: the melting point was in the range of 188 to 192 °C.
On to `Cc1c(N)c(C)c2c(-c3ccc(C4CCCCC4)cc3)coc2c1C`, for which the melting point was in the range of 139 to 140 °C.
`CN(C)S(=O)(=O)c1cc2c(c(C(=O)Cl)c1)OCCO2` showed a melting point of 160 to 162 °C.
`CN1C(=O)N(CC(CS(=O)(=O)c2ccc(Oc3ccc(Cl)cc3)cc2)N(O)C=O)C(=O)C1(C)C` (single isomer, unassigned; (-)) registered a melting point of 111 °C.
On to `COCOc1cccc(F)c1C#N`, for which the melting point lay within 53 to 55 °C.
`CCNc1ncc2ccc(=O)n(C)c2n1` displayed a melting point of 194 to 195 °C.
To `O=C(c1ccccc1)c1cc([N+](=O)[O-])ccc1-n1nc(CO)cc1CO` belongs 145 to 147 °C; to `CCOC(=O)c1cc2c(=O)c3cc(C(C)(C)O)ccc3oc2nc1N`, 263 to 264 °C.
`COc1ccc(C2=NN(CC(=O)O)C(=O)[C@H]3CC=CC[C@@H]23)cc1OC` (relative stereo): the melting point lay within 178 to 180 °C.
`CN1Cc2c(C#CC(C)(C)O)ncn2-c2cccc(Br)c2C1=O` registered a melting point of 207 to 208 °C.
Compound `c1ccc2c(c1)cnn2N1CCNCC1` returned a melting point of 153 °C.
In the case of `Cc1nc2cc(NC(=O)c3ccccc3O)ccc2o1`, the melting point lay within 202 to 206 °C.
Compound `Oc1cc2c3c(sc2c(Cl)c1Cl)CCCC3` returned a melting point of 103 to 105 °C.
Regarding `CS(=O)(=O)N1CCN(c2ccc3c(c2)N2CCN=C2C(c2ccccc2)=[N+]3[O-])CC1`, the melting point was 252 to 253 °C.
As for `COC(=O)CC[C@H](NC(=O)c1cn(C(c2ccccc2)(c2ccccc2)c2ccccc2)c(C#Cc2cnc3nc(NC(=O)C(C)(C)C)nc(O)c3c2)n1)C(=O)OC`, the melting point lay in the range of 93 to 95 °C.
In turn, `OCCNCCc1c[nH]c2ccccc12` came in with a melting point of 92 °C.
To `COc1ccc(C=Cc2oc3ccc(C#N)cc3c2C(C)=O)cc1` belongs 190 to 191 °C; to `O=C1CNCCN1CCc1ccccc1`, 75 to 78 °C; to `Cc1ccc(N2CCN(c3cccc(Cl)c3)C2C(Cl)(Cl)Cl)cc1` (configuration not stated), 34 to 36 °C.
`Cc1c(NC(=O)c2ccc(-c3ccc4c(c3)CCO4)cc2)ccc2cc(CN3CCCC3)cnc12` gave a melting point of 176 to 177 °C.
To `COc1cc(O)ccc1/C=C/C(=O)CC(=O)/C=C/c1cc(OCc2ccccc2)ccc1-c1ccccc1` belongs 175 to 180 °C; to `COc1ccc2[nH]cc(C3=C(Cl)C(=O)C=C(Cl)C3=O)c2c1`, 195 to 196 °C.
The compound `CC(C)(C)CCC/C(=C\c1ccc(C(=O)O)cc1)Cn1ccnc1` displayed a melting point of 190 to 192 °C.
With `O=C(Nc1ccc2[nH]ncc2c1)O[C@@H](c1cccc(C(F)(F)F)c1)[C@@H]1CCCCN1`, the melting point was found to be 190 °C.
The compound `C=C1CCC2C3CCC4CC(OC(C)=O)CCC4(C)C3C(=O)CC12C` (configuration not stated) gave a melting point of 140 to 141 °C.
`Clc1[nH]c2ccccc2c1Sc1ccccc1` returned a melting point of 98 to 99 °C.
`NC1([C@@H]2CCN(c3cc4c(cc3F)c(=O)c(C(=O)O)cn4[C@@H]3C[C@@H]3F)C2)CC1` had a melting point of 240 to 242 °C.
To `COc1ccc(OC)c(CNc2ccc3nc[nH]c(=O)c3c2)c1` belongs 203 to 205 °C.
